Test results published in US5942502A, “Method of treating diseases resulting from calcium metabolism disorders” (priority 1998, dated 1999).
Entries after “also recorded” stand apart in the source; their conditions may differ. Like-named read-outs stand apart in the source and are kept apart here.

Assays:
[1] = cited from earlier work
[2] = in vivo; cited from earlier work
[3] = cited from earlier work; remark: listed apart in the source
[4] = tested on: postmenopausal osteoporosis; conditions: average dose 0.8 μg per day, cited from earlier work
[5] = tested on: postmenopausal osteoporosis; conditions: cited from earlier work
Ovariectomized rats = experiment: Ovariectomized rat model: serum Ca and P, femur dry weight, ash weight and breaking load; format: in vivo, Female Fisher rats; conditions: for Serum Pi / Breaking load (femur) / Serum Ca / Ash weight (femur) / Dry weight (femur): three times a week for 23 weeks, Mean ± SD; for Serum Pi: OVX 2.6 ± 0.4; for Breaking load (femur): OVX 9.0 ± 0.9; for Serum Ca: OVX 9.7 ± 0.2; for Ash weight (femur): OVX 285 ± 19; for Dry weight (femur): OVX 431 ± 26
Source text: Female Fisher rats, 9-10 months old, were ovariectomized and were fed a vitamin D-deficient diet containing 0.45% calcium and 0.3% phosphorus. The rats were given 15IU of vitamin D3 orally once a week throughout this experiment. Four weeks after the surgery, the rats were orally adminstered three times a week for 23 weeks with ST-630 (30, 100 or 300 pmole/kg) or 1α-hydroxyvitamin D3 (100 or 300 pmole/kg).

[6] = Acute toxicity (LD50), single dose; format: in vivo, rat; conditions: rat, in vivo; single (acute) dose, male rats, at 14 days
Source text: LD50 data represent the dose administered resulting in the death of 50% of the test group.

female beagle dogs = experiment: Chronic dosing toxicity, three months oral; format: in vivo, dog (beagle); conditions: 0.3 mg/kg orally each day for three months
Method: With respect to chronic dosing, a group of six female beagle dogs were given 0.3 mg/kg of either ST-630 or 1α-hydroxyvitamin D3 orally each day for three months.

[7] = compared with 1,25-(OH)2 D3; cited from earlier work
[8] = especially with conventional calcium supplement treatment
[9] = dose response over the doses tested

## C=C1/C(=C\C=C2/CCC[C@]3(C)[C@@H]([C@H](C)/C=C/[C@H](C)C(C)(C)O)CC[C@@H]23)C[C@@H](O)C[C@@H]1O [1α,25-dihydroxyvitamin D2]
[1]; [8]
  hypercalcemia: causing hypercalcemia

## C=C1CC[C@H](O)C/C1=C/C=C1\CCC[C@]2(C)[C@@H]([C@H](C)CCCC(C)(C)O)CC[C@@H]12 [hydrate of 25-hydroxyvitamin D3, 25-hydroxyvitamin D3]
[1]; [8]
  hypercalcemia: danger of hypercalcemia

## C=C1/C(=C\C=C2/CCC[C@]3(C)[C@@H]([C@H](C)/C=C/[C@@H](C)C(C)(C)O)CC[C@@H]23)C[C@@H](O)C[C@@H]1O [1α,25-dihydroxy-24-epi-vitamin D2]
[2]
  intestinal calcium transport: increasing intestinal calcium transport
  mineralization of new bone: stimulating the mineralization of new bone
  mobilizing calcium from bone: minimal effectiveness

## C=C1/C(=C\C=C2/CCC[C@]3(C)[C@@H]([C@H](C)CCC(O)C(C)(C)O)CC[C@@H]23)C[C@@H](O)CC1O (stereo partly drawn) [1,24,25-trihydroxyvitamin D3]
[1]; in vivo
  hypercalcemia: causing hypercalcemia

## C=C1/C(=C\C=C2/CCC[C@]3(C)[C@@H]([C@H](C)CCCC(C)(C)O)CC[C@@H]23)C[C@@H](O)C[C@@H]1O [calcitriol, 1α,25-dihydroxyvitamin D3]
[3]; in view of Oloia et al and Tilyard et al
  dosage "window" or tolerance between effectiveness and toxicity: relatively small
[4]
  Hypercalciuria incidence: all subjects
  bone formation: no effect on bone formation
  bone resorption: reducing bone resorption
  calcium absorption: increasing calcium absorption
  hypercalcemia incidence: 11 of 12 subjects
[4]; women with postmenopausal osteoporosis
  bone loss: reduced bone loss
[5]; 0.5 μg per day (0.25 μg orally twice a day), average dietary calcium intake 800 mg
  hypercalcemia: not accompanied by hypercalcemia of any severity; also recorded: limited potential to induce hypercalcemia
[5]; 0.5 μg per day for three years, versus supplemental calcium 1 gram daily
  rate of new vertebral fractures: significant reduction
[1]; [8]
  hypercalcemia: causing hypercalcemia

## C=C1/C(=C\C=C2/CCC[C@]3(C)[C@@H]([C@H](C)CCCC(C)C)CC[C@@H]23)C[C@@H](O)C[C@@H]1O [1α-hydroxyvitamin D3, reference compound]
[3]; humans
  safe dose used for human administration: 1 µg/day
Ovariectomized rats; 100 pmole/kg p.o.
  Serum Pi: 3.8 ± 0.3 mg/100 ml
  Breaking load (femur): 9.3 ± 0.6 kg
  Serum Ca: 9.9 ± 0.2 mg/100 ml
  Ash weight (femur): 303 ± 29 mg
  Dry weight (femur): 454 ± 42 mg
Ovariectomized rats; 300 pmole/kg p.o.
  Serum Pi: 4.3 ± 0.4 mg/100 ml
  Breaking load (femur): 9.5 ± 1.1 kg
  Serum Ca: 10.3 ± 0.3 mg/100 ml
  Ash weight (femur): 308 ± 33 mg
  Dry weight (femur): 461 ± 47 mg
Ovariectomized rats; [9]
  serum calcium level: increased dose-dependently
  serum phosphorus level: increased dose-dependently
[6]
  LD50 at 336 h: 0.2 mg/kg
Female beagle dogs
  deaths: two of six dogs

## C=C1/C(=C\C=C2/CCC[C@]3(C)[C@@H]([C@H](C)CCC(F)(F)C(C)(C)O)CC[C@@H]23)C[C@@H](O)C[C@@H]1O [24,24-difluoro-1,25-(OH)2 D3]
[7]
  activity relative to 1,25-(OH)2 D3: at least as great if not greater activity

## C=C1/C(=C\C=C2/CCC[C@]3(C)[C@@H]([C@H](C)/C=C/[C@H](C)C(C)C)CC[C@@H]23)C[C@@H](O)C[C@@H]1O [1α-hydroxyvitamin D2]
[1]; [8]
  hypercalcemia: causing hypercalcemia
